Source: patent publication US9221832B2, “Heterocyclic amide derivatives as P2X7 receptor antagonists” (ACTELION PHARMACEUTICALS LTD., priority 2011, dated 2015)

target: human recombinant P2X7 receptor (Homo sapiens (Human), UniProt Q99572); test: YO-PRO assay: P2X7 receptor antagonistic activity; format: cell-based; settings: HEK cells expressing human P2X7
Sequence (Q99572 whole entry): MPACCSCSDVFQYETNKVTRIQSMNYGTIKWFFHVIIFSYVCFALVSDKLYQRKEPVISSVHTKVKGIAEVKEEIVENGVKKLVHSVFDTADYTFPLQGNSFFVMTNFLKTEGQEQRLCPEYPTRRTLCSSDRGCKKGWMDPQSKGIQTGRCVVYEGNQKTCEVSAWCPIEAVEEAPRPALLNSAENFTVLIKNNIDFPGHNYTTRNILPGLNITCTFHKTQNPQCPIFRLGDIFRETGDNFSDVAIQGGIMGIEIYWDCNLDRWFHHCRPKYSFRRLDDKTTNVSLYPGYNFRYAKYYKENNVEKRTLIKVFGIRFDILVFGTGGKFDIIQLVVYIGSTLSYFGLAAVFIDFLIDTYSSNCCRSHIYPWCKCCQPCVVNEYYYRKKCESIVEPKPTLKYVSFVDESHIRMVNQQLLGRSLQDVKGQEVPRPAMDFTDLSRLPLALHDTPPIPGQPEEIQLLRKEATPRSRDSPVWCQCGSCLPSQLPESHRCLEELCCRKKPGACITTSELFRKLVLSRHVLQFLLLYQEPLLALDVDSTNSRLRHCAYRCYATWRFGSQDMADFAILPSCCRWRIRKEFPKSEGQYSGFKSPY

In order of rising IC50:
1. Cc1cc(Cl)cc(Cl)c1CC(=O)NC1COc2cnccc21 (racemic) [Example 89, rac-2-(2,4-Dichloro-6-methyl-phenyl)-N-(2,3-dihydro-furo[2,3-c]pyridin-3-yl)-acetamide]  3.2 nM
2. O=C(Cc1c(Cl)cc(Cl)cc1CO)NC1COc2ncccc21 (racemic) [Example 103, rac-2-(2,4-Dichloro-6-hydroxymethyl-phenyl)-N-(2,3-dihydro-furo[2,3-b]pyridin-3-yl)-acetamide]  16 nM
3. CC(C(=O)NC1COc2ncccc21)c1ccc(Cl)cc1 (stereo not shown) [Example 23, 2-(4-Chloro-phenyl)-N-(2,3-dihydro-furo[2,3-b]pyridin-3-yl)-propionamide]  828 nM
4. O=C(Cc1c(F)cccc1C(F)(F)F)NC1COc2ncccc21 (racemic) [Example 68, rac-N-(2,3-Dihydro-furo[2,3-b]pyridin-3-yl)-2-(2-fluoro-6-trifluoromethyl-phenyl)-acetamide]  1830 nM
